Consider 13 molecules from patent US20260184710A1, “CASITAS B-LINEAGE LYMPHOMA PROTOONCOGENE B (CBL-B) DEGRADING COMPOUNDS AND ASSOCIATED METHODS OF USE” (Arvinas Operations, Inc., priority 2022, published 2026).

Structures are written as SMILES.

For experiment [1], the target named is T1, Cbl-b (Homo sapiens, UniProt Q13191).
T1 construct: Cbl-b-HiBit KI Jurkat Cells were purchased from Promega; host or cells: Cbl-b-HiBiT knock-in Jurkat cells
Nature of the experiment: Cbl-b Degradation Method A (FACS, anti-Cbl-b antibody staining). In kind it is cell-based. To be noted: Cbl-b-HiBit KI Jurkat Cells, incubated at least 20 hours; for DC50: half maximal degradation, read-out: Cbl-b Degredation Method A IC50; for Dmax: Jurkat, maximum degradation observed, read-out: Cbl-b Degredation Method A Dmax (%). The method in brief: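 Cbl-b-HiBit KI Jurkat cells treated with compound for at least 20 h at 37 °C, then fixed, permeabilized and stained with anti-Cbl-b antibody plus anti-rabbit AF488 secondary. Cbl-b levels read by FACS; DC50 and Dmax (percent of control) derived.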
(In general: HiBiT is a short tag that completes a luciferase, so light tracks the accessible tagged protein.)

The target in experiment [2] is T1, Cbl-b. The experiment is described as follows: Cbl-b Degradation Method B (Nano-Glo HiBiT lytic detection). The following applies: Cbl-b-HiBit KI Jurkat Cells, incubated at least 6-24 hours; for DC50: half maximal degradation, read-out: Cbl-b Degredation Method B IC50; for Dmax: maximum degradation observed, read-out: Cbl-b Degredation Method B Dmax (%). In kind it is cell-based. The gist of the method: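 Cbl-b-HiBiT knock-in Jurkat cells (20,000/well) were treated after ~24 h plating with an 11-point 1:3 series for 6-24 h at 37° C. Remaining Cbl-b measured by Nano-Glo HiBiT lytic luminescence. DC50 and Dmax expressed as % of control.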

T1 sequence (Q13191 whole entry): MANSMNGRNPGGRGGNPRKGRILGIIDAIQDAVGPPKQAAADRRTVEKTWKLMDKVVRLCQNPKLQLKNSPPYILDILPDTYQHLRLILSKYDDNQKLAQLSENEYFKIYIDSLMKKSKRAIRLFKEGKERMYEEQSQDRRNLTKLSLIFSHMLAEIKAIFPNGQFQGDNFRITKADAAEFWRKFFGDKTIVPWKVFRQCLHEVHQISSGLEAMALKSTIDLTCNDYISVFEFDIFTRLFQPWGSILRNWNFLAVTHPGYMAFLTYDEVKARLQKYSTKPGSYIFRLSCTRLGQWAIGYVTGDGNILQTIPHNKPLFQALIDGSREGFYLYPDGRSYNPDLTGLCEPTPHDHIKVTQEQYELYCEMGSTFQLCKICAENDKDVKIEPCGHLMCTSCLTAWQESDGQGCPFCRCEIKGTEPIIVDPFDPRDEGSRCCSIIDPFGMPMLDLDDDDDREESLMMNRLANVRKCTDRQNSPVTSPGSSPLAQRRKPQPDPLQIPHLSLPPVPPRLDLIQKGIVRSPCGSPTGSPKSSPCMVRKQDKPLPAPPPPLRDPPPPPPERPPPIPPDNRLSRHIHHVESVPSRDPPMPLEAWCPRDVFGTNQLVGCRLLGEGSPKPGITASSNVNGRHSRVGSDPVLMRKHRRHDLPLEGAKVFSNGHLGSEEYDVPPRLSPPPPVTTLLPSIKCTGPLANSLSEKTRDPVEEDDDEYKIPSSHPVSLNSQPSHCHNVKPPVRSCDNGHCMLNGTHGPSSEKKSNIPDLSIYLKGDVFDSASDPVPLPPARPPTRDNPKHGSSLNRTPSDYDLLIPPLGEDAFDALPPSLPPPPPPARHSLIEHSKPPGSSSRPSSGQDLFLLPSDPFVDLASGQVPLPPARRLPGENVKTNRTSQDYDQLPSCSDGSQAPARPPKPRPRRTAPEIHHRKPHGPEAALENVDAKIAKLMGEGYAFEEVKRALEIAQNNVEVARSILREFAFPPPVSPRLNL

For `Cn1cnnc1CC1(c2cccc(N3Cc4c(cc(CN5CCC(CC6CN(c7cccc8c7C(=O)N(C7CCC(=O)NC7=O)C8=O)C6)CC5)cc4C(F)(F)F)C3=O)c2)COC1` (centres unmarked) [Example 99, 2-(2,6-dioxopiperidin-3-yl)-4-{3-[(1-{[2-(3-{3-[(4-methyl-4H-1,2,4-triazol-3-yl)methyl]oxetan-3-yl}phenyl)-3-oxo-7-(trifluoromethyl)-2,3-dihydro-1H-isoindol-5-yl]methyl}piperidin-4-yl)methyl]azetidin-1-yl}-2,3-dihydro-1H-isoindole-1,3-dione], the DC50 on Cbl-b [1] and at Cbl-b [2] was more than 500 nM in each case.

What is called Dmax is the largest share of the target that was removed. Turning to `Cn1cnnc1CC1(c2cccc(N3Cc4c(cc(CN5CCC(N6CCC7(CCN(c8ccc9c(c8)C(=O)N(C8CCC(=O)NC8=O)C9=O)CC7)CC6)CC5)cc4C(F)(F)F)C3=O)c2)COC1` (centres unmarked) [Example 100, 2-(2,6-dioxopiperidin-3-yl)-5-[9-(1-{[2-(3-{3-[(4-methyl-4H-1,2,4-triazol-3-yl)methyl]oxetan-3-yl}phenyl)-3-oxo-7-(trifluoromethyl)-2,3-dihydro-1H-isoindol-5-yl]methyl}piperidin-4-yl)-3,9-diazaspiro[5.5]undecan-3-yl]-2,3-dihydro-1H-isoindole-1,3-dione], on Cbl-b [1], the DC50 was more than 500 nM and the Dmax was less than 35%. Moreover, at Cbl-b [2], the DC50 was more than 500 nM.

Take `Cn1cnnc1CC1(c2cccc(N3Cc4c(cc(CN5CCC[C@H](CN6CCC(CN7CCN(c8ccc9c(c8)C(=O)N(C8CCC(=O)NC8=O)C9=O)CC7)CC6)C5)cc4C(F)(F)F)C3=O)c2)COC1` (stereo partly drawn) [Example 101, 2-(2,6-dioxopiperidin-3-yl)-5-{4-[(1-{[(3R)-1-{[2-(3-{3-[(4-methyl-4H-1,2,4-triazol-3-yl)methyl]oxetan-3-yl}phenyl)-3-oxo-7-(trifluoromethyl)-2,3-dihydro-1H-isoindol-5-yl]methyl}piperidin-3-yl]methyl}piperidin-4-yl)methyl]piperazin-1-yl}-2,3-dihydro-1H-isoindole-1,3-dione]: the DC50 on Cbl-b [1] and at Cbl-b [2] was more than 500 nM in each case.

For the molecule `CC1CC(N2CCC(COCCOc3ccc4c(c3)C(=O)N(C3CCC(=O)NC3=O)C4=O)CC2)CN(Cc2cc3c(c(C(F)(F)F)c2)CN(c2cccc(C4(Cc5nncn5C)COC4)c2)C3=O)C1` (centres unmarked) [Example 102, 2-(2,6-dioxopiperidin-3-yl)-5-{2-[(5′-methyl-1′-{[2-(3-{3-[(4-methyl-4H-1,2,4-triazol-3-yl)methyl]oxetan-3-yl}phenyl)-3-oxo-7-(trifluoromethyl)-2,3-dihydro-1H-isoindol-5-yl]methyl}-[1,3′-bipiperidin]-4-yl)methoxy]ethoxy}-2,3-dihydro-1H-isoindole-1,3-dione], the DC50 at Cbl-b [1] and at Cbl-b [2] was more than 500 nM in each case.

As to `Cn1cnnc1CC1(c2cccc(N3Cc4c(cc(CN5CCC(N6CCN(CC7CCN(c8ccc9c(c8)C(=O)N(C8CCC(=O)NC8=O)C9=O)CC7)CC6)CC5)cc4C(F)(F)F)C3=O)c2)COC1` (centres unmarked) [Example 103, 2-(2,6-dioxopiperidin-3-yl)-5-(4-{[4-(1-{[2-(3-{3-[(4-methyl-4H-1,2,4-triazol-3-yl)methyl]oxetan-3-yl}phenyl)-3-oxo-7-(trifluoromethyl)-2,3-dihydro-1H-isoindol-5-yl]methyl}piperidin-4-yl)piperazin-1-yl]methyl}piperidin-1-yl)-2,3-dihydro-1H-isoindole-1,3-dione], on Cbl-b [1], the DC50 was more than 500 nM and the maximal degradation (Dmax) fell in the range of 35 to 70%. Also, on Cbl-b [2], the DC50 was more than 500 nM.

In the case of `Cn1cnnc1CC1(c2cccc(N3Cc4c(cc(CN5CCN(C6CCN(CC7CCN(c8ccc9c(c8)C(=O)N(C8CCC(=O)NC8=O)C9=O)CC7)CC6)CC5)cc4C(F)(F)F)C3=O)c2)COC1` (centres unmarked) [Example 104, 2-(2,6-dioxopiperidin-3-yl)-5-(4-{[4-(4-{[2-(3-{3-[(4-methyl-4H-1,2,4-triazol-3-yl)methyl]oxetan-3-yl}phenyl)-3-oxo-7-(trifluoromethyl)-2,3-dihydro-1H-isoindol-5-yl]methyl}piperazin-1-yl)piperidin-1-yl]methyl}piperidin-1-yl)-2,3-dihydro-1H-isoindole-1,3-dione], the DC50 was 50 to 500 nM at Cbl-b [1] and more than 500 nM at Cbl-b [2].

`Cn1cnnc1CC1(c2cccc(N3Cc4c(cc(CN5CCN(C6CCC7(CC6)CCN(c6ccc8c(c6)C(=O)N(C6CCC(=O)NC6=O)C8=O)CC7)CC5)cc4C(F)(F)F)C3=O)c2)COC1` (centres unmarked) [Example 105, 2-(2,6-dioxopiperidin-3-yl)-5-[9-(4-{[2-(3-{3-[(4-methyl-4H-1,2,4-triazol-3-yl)methyl]oxetan-3-yl}phenyl)-3-oxo-7-(trifluoromethyl)-2,3-dihydro-1H-isoindol-5-yl]methyl}piperazin-1-yl)-3-azaspiro[5.5]undecan-3-yl]-2,3-dihydro-1H-isoindole-1,3-dione]: the DC50 at Cbl-b [1] and at Cbl-b [2] was more than 500 nM each time.

Consider `Cn1cnnc1CC1(c2cccc(N3Cc4c(cc(CN5CCC(N6CC7(CN(c8ccc9c(c8)C(=O)N(C8CCC(=O)NC8=O)C9=O)C7)C6)CC5)cc4C(F)(F)F)C3=O)c2)COC1` (centres unmarked) [Example 106, 2-(2,6-dioxopiperidin-3-yl)-5-[6-(1-{[2-(3-{3-[(4-methyl-4H-1,2,4-triazol-3-yl)methyl]oxetan-3-yl}phenyl)-3-oxo-7-(trifluoromethyl)-2,3-dihydro-1H-isoindol-5-yl]methyl}piperidin-4-yl)-2,6-diazaspiro[3.3]heptan-2-yl]-2,3-dihydro-1H-isoindole-1,3-dione], for which the DC50 at Cbl-b [1] is 50 to 500 nM; at Cbl-b [2], more than 500 nM. Besides, the Dmax at Cbl-b [1] is more than 70%.

Consider `Cn1cnnc1CC1(c2cccc(N3Cc4c(cc(CN5CCN(C6CC7(C6)CN(c6ccc8c(c6)C(=O)N(C6CCC(=O)NC6=O)C8=O)C7)CC5)cc4C(F)(F)F)C3=O)c2)COC1` (centres unmarked) [Example 107, 2-(2,6-dioxopiperidin-3-yl)-5-[6-(4-{[2-(3-{3-[(4-methyl-4H-1,2,4-triazol-3-yl)methyl]oxetan-3-yl}phenyl)-3-oxo-7-(trifluoromethyl)-2,3-dihydro-1H-isoindol-5-yl]methyl}piperazin-1-yl)-2-azaspiro[3.3]heptan-2-yl]-2,3-dihydro-1H-isoindole-1,3-dione], for which, on Cbl-b [1], the DC50 was in the range of 5 to 50 nM and the Dmax is less than 35%. The DC50 on Cbl-b [2] is more than 500 nM.

For `Cn1cnnc1CC1(c2cccc(N3Cc4c(cc(CN5CCCC(N6CC7(CCN(c8ccc9c(c8)C(=O)N(C8CCC(=O)NC8=O)C9=O)CC7)C6)C5)cc4C(F)(F)F)C3=O)c2)COC1` (centres unmarked) [Example 108, 2-(2,6-dioxopiperidin-3-yl)-5-[2-(1-{[2-(3-{3-[(4-methyl-4H-1,2,4-triazol-3-yl)methyl]oxetan-3-yl}phenyl)-3-oxo-7-(trifluoromethyl)-2,3-dihydro-1H-isoindol-5-yl]methyl}piperidin-3-yl)-2,7-diazaspiro[3.5]nonan-7-yl]-2,3-dihydro-1H-isoindole-1,3-dione], the DC50 on Cbl-b [1] and on Cbl-b [2] was 5 to 50 nM in each case. The results for the maximal degradation (Dmax) on Cbl-b [1] and on Cbl-b [2] were less than 35% and 35 to 70%, respectively.

`Cn1cnnc1CC1(c2cccc(N3Cc4c(cc(CN5CCC[C@@H](CN6CCC(CC7CCN(c8ccc9c(c8)C(=O)N(C8CCC(=O)NC8=O)C9=O)CC7)CC6)C5)cc4C(F)(F)F)C3=O)c2)COC1` (stereo partly drawn) [Example 110, 2-(2,6-dioxopiperidin-3-yl)-5-{4-[(1-{[(3S)-1-{[2-(3-{3-[(4-methyl-4H-1,2,4-triazol-3-yl)methyl]oxetan-3-yl}phenyl)-3-oxo-7-(trifluoromethyl)-2,3-dihydro-1H-isoindol-5-yl]methyl}piperidin-3-yl]methyl}piperidin-4-yl)methyl]piperidin-1-yl}-2,3-dihydro-1H-isoindole-1,3-dione]: at Cbl-b [1], the DC50 was 5 to 50 nM and the Dmax was less than 35%. Further, the DC50 at Cbl-b [2] was more than 500 nM.

As to `Cn1cnnc1CC1(c2cccc(N3Cc4c(cc(CN5CCC[C@H](CN6CCC(CC7CCN(c8ccc9c(c8)C(=O)N(C8CCC(=O)NC8=O)C9=O)CC7)CC6)C5)cc4C(F)(F)F)C3=O)c2)COC1` (stereo partly drawn) [Example 111, 2-(2,6-dioxopiperidin-3-yl)-5-{4-[(1-{[(3R)-1-{[2-(3-{3-[(4-methyl-4H-1,2,4-triazol-3-yl)methyl]oxetan-3-yl}phenyl)-3-oxo-7-(trifluoromethyl)-2,3-dihydro-1H-isoindol-5-yl]methyl}piperidin-3-yl]methyl}piperidin-4-yl)methyl]piperidin-1-yl}-2,3-dihydro-1H-isoindole-1,3-dione], the DC50 is 50 to 500 nM on Cbl-b [1] and more than 500 nM on Cbl-b [2].

In the case of `Cn1cnnc1CC1(c2cccc(N3Cc4c(cc(CN5CCN(C[C@H]6CC[C@H](OC7CCN(c8ccc9c(n8)CN(C8CCC(=O)NC8=O)C9=O)CC7)CC6)CC5)cc4C(F)(F)F)C3=O)c2)COC1` (some centres unmarked) [Example 112, 3-[5-oxo-2-(4-{[(1r,4r)-4-[(4-{[2-(3-{3-[(4-methyl-4H-1,2,4-triazol-3-yl)methyl]oxetan-3-yl}phenyl)-3-oxo-7-(trifluoromethyl)-2,3-dihydro-1H-isoindol-5-yl]methyl}piperazin-1-yl)methyl]cyclohexyl]oxy}piperidin-1-yl)-5H,6H,7H-pyrrolo[3,4-b]pyridin-6-yl]piperidine-2,6-dione], at Cbl-b [1], the DC50 was 5 to 50 nM and the Dmax was in the range of 35 to 70%. For the same molecule, at Cbl-b [2], the DC50 is less than 5 nM and the Dmax was 35 to 70%.
